# From article PMC9414584, “Synthesis and Biological Evaluation of Indole-2-Carboxamides with Potent Apoptotic Antiproliferative Activity as EGFR/CDK2 Dual Inhibitors” (Pharmaceuticals, 2022)
# Several values for one entry are separate records, joined by “and”; a condition that tells them apart may be missing. Equal entries are not always repeated.
# Legend:
# [1] = Cell viability assay (MTT) on MCF-10A cells; type: cell-based; settings: human, MCF-10A mammary gland epithelial cells
# Method: (§1) The MCF-10A (human mammary gland epithelial) cell line was used in the cell viability experiment. Compounds 5a–k, 6a–c, and 7 were incubated with MCF-10A cells for 4 days at 50 µM concentration, and the viability of cells was determined using the 3-(4,5-dimethylthiazol-2-yl)-2,5-diphenyltetrazolium bromide (MTT) test.. All compounds had no cytotoxic effects, and the vitality of the cells was more than 83% for most of the compounds examined.
# as §1, with “test.” for “test.. All compounds had no cytotoxic effects, and the vitality of the cells was more than 83% for most of the compounds examined.”
# [2] = system: epithelial cancer cell line (A-549); test: Antiproliferative MTT assay, A-549; type: cell-based; settings: Homo sapiens, A549; A-549, MTT; read-out: Antiproliferative Activity IC50 ± SEM A-549
# Description: (§2) Using the MTT assay with doxorubicin as the reference drug, the antiproliferative activities of 5a–k, 6a–c, and 7 against four human cancer cell lines, including pancreas cancer cell line (Panc-1), breast cancer cell line (MCF-7), colon cancer cell line (HT-29), and epithelial cancer cell line (A-549) were investigated.
# [3] = system: breast cancer cell line (MCF-7); test: Antiproliferative MTT assay, MCF-7; type: cell-based; settings: Homo sapiens, MCF7; MCF-7, MTT; read-out: Antiproliferative Activity IC50 ± SEM MCF-7
# Description: as §2
# [4] = system: pancreas cancer cell line (Panc-1); test: Antiproliferative MTT assay, Panc-1; type: cell-based; settings: Homo sapiens; Panc-1, MTT; read-out: Antiproliferative Activity IC50 ± SEM Panc-1
# Description: as §2
# [5] = system: colon cancer cell line (HT-29); test: Antiproliferative MTT assay, HT-29; type: cell-based; settings: Homo sapiens; HT-29, MTT; read-out: Antiproliferative Activity IC50 ± SEM HT-29
# Description: as §2
# [6] = system: four human cancer cell lines (Panc-1, MCF-7, HT-29, A-549); test: Antiproliferative MTT assay, average of four cancer cell lines (mean GI50); type: cell-based; settings: for IC50: Homo sapiens, average of A-549, MCF-7, Panc-1, HT-29, read-out: Antiproliferative Activity IC50 Average (GI50 against the four cell lines); for fold less potent than 5e (mean GI50): ratio of mean GI50 vs compound 5e
# [7] = system: Caspase-8 in MCF-7 breast cancer cell line; test: Caspase-8 level in MCF-7 cells; type: cell-based, human
# [8] = system: Caspase-9 in MCF-7 breast cancer cell line; test: Caspase-9 level in MCF-7 cells; type: cell-based, human
# [9] = system: Cytochrome C in MCF-7 human breast cancer cell line; test: Cytochrome C assay in MCF-7 cells; type: cell-based
# Method: The quantity of cytochrome C within the cell is important for activating caspases and commencing the intrinsic apoptosis process. […] The findings add to the evidence that apoptosis can be attributed to Cytochrome C overexpression and activation of the intrinsic apoptotic pathway triggered by the investigated compounds.
# Indole-2-carboxamide derivatives 5d, 5e, and 5h were evaluated as Cytochrome C activators in the MCF-7 human breast cancer cell line.
# [10] = system: Bax in breast cancer cell line (MCF-7); test: Bax level assay in MCF-7 cells; type: cell-based, human
# [11] = system: Bcl-2 in breast cancer cell line (MCF-7); test: Bcl-2 level assay in MCF-7 cells; type: cell-based, human
# p53 in MCF-7 = test: p53 transcription/level in MCF-7; type: cell-based, human; settings: MCF-7 cells
# Description: p53 is a unique protein that participates in several physiological processes such as cell metabolism, stem cell maintenance, and cell adhesion. Because p53 is frequently inactivated in cancer cells, the cells are unable to undergo apoptosis. Similarly, activating, or stabilizing p53 aids cancer cells in normalizing p53-controlled physiological processes and increasing apoptotic activity.
# CDK2 enzyme = CDK2 enzyme (Homo sapiens, UniProt P24941); test: CDK2 inhibitory assay
# [12] = system: Caspase-3 in MCF-7 breast cancer cell line; test: Caspase-3 level in MCF-7 cells
# EGFR = EGFR (Homo sapiens, UniProt P00533); test: EGFR-TK inhibitory assay; type: biochemical; settings: read-out: EGFR Inhibition IC50 ± SEM
# Chain of EGFR (P00533 25-1210): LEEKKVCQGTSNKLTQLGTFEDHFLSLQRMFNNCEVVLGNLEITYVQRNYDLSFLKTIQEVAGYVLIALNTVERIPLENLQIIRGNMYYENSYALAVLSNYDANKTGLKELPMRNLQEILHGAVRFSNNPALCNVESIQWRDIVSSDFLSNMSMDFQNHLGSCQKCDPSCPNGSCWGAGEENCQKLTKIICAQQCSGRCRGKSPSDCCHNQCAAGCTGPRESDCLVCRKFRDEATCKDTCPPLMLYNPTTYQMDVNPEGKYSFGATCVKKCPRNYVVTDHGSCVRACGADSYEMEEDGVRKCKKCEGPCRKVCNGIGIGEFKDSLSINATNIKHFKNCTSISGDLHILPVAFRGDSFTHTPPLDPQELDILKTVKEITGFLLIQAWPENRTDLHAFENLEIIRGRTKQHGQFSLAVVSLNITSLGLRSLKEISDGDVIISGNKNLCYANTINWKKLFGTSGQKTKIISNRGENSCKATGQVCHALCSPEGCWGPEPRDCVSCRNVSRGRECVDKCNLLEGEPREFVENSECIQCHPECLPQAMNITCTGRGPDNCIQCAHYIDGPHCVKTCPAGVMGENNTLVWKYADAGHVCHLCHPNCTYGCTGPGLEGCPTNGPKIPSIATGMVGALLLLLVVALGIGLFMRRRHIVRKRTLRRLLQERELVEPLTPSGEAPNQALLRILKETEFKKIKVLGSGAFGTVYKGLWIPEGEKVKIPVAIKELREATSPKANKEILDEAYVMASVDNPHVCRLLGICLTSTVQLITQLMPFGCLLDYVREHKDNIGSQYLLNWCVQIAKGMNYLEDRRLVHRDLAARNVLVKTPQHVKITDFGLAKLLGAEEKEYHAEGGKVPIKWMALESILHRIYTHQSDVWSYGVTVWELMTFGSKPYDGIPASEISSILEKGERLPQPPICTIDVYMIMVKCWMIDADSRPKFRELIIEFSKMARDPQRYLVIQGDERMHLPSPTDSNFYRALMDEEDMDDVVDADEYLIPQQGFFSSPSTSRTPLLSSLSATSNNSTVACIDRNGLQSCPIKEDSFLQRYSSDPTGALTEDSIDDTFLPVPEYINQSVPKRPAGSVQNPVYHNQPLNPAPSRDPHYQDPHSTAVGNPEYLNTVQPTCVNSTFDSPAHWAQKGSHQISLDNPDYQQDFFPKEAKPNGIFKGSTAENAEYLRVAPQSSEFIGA
SMILES,"viability at 4 days, 50 µM [1] [%]",IC50 [2] [nM],IC50 [3] [nM],IC50 [4] [nM],IC50 [5] [nM],IC50 [6] [nM],melting point [°C],IC50 (CDK2 enzyme) [nM],further results
"Cc1c(C(=O)NCCc2ccccc2)[nH]c2ccc(Cl)cc12 [Compound 5a, 5-Chloro-3-methyl-N-phenethyl-1H-indole-2-carboxamide]",89,3700 ± 300,3200 ± 300,3900 ± 300,3900 ± 300,3700,182 to 184,–,fold less potent than 5e (mean GI50) [6]: roughly four-fold
"Cc1c(C(=O)NCCc2ccc(N(C)C)cc2)[nH]c2ccc(Cl)cc12 [Compound 5b, 5-Chloro-N-(4-(dimethylamino)phenethyl)-3-methyl-1H-indole-2-carboxamide]",87,3200 ± 300,2900 ± 300,3500 ± 300,3600 ± 300,3300,202 to 204,–,–
"Cc1c(C(=O)NCCc2ccc(N3CCCCC3)cc2)[nH]c2ccc(Cl)cc12 [Compound 5c, 5-Chloro-3-methyl-N-(4-(piperidin-1-yl)phenethyl)-1H-indole-2-carboxamide]",87,1700 ± 200,1400 ± 200,1800 ± 200,1800 ± 200,1700,216 to 218,–,fold less potent than 5e (mean GI50) [6]: at least 1.8 fold; fold reduction of mean GI50 potency vs 5d ([6]; ratio of mean GI50 vs compound 5d): ≥ 1.6 fold
"Cc1c(C(=O)NCCc2ccc(N3CCOCC3)cc2)[nH]c2ccc(Cl)cc12 [Compound 5d, 5-Chloro-3-methyl-N-(4-morpholinophenethyl)-1H-indole-2-carboxamide]",89,1050 ± 100,900 ± 100,1100 ± 100,1100 ± 100,1050,210 to 212,23 ± 2,Caspase-8 Conc [7]: 1.94 ng/mL; Caspase-9 Conc [8]: 16.90 ng/mL; Cytochrome C Conc [9]: 0.70 ng/mL; Bax Conc [10]: 290 pg/mL and 289.70 ± 2.50 pg/mL; Bcl-2 Conc [11]: 0.89 ng/mL; p53 Conc (p53 in MCF-7): 1375 pg/mL and 1375 ± 15 pg/mL; Caspase-3 Conc [12]: 570.00 ± 5.00 pg/mL
"Cc1c(C(=O)NCCc2ccccc2)[nH]c2cc(Cl)ccc12 [Compound 5f, 6-Chloro-3-methyl-N-phenethyl-1H-indole-2-carboxamide]",90,1900 ± 200,1700 ± 200,2100 ± 200,2100 ± 200,1950,170 to 172,–,times more potent than 5a ([6]; vs compound 5a): 1.9 times
"Cc1c(C(=O)NCCc2ccc(N3CCCCC3)cc2)[nH]c2cc(Cl)ccc12 [Compound 5g, 6-Chloro-3-methyl-N-(4-(piperidin-1-yl)phenethyl)-1H-indole-2-carboxamide]",89,4900 ± 500,4800 ± 500,5200 ± 500,5100 ± 500,5000,218 to 220,–,times lower antiproliferative efficacy than 5c ([6]; vs compound 5c): 3 times
"Cc1c(C(=O)NCCc2ccc(N3CCCCC3)cc2)[nH]c2c(Cl)cc(Cl)cc12 [Compound 5h, 5,7-Dichloro-3-methyl-N-(4-(piperidin-1-yl)phenethyl)-1H-indole-2-carboxamide]",87,1000 ± 100,900 ± 100,1200 ± 100,1200 ± 100,1100,178 to 180,11 ± 1,IC50 (EGFR): 118 ± 10 nM; Caspase-8 Conc [7]: 1.88 ng/mL; Caspase-8 Fold Change ([7]; vs control cells): 9.50 fold; Caspase-9 Conc [8]: 16.65 ng/mL; Caspase-9 Fold Change ([8]; vs control cells): 17.50 fold; Cytochrome C Conc [9]: 0.65 ng/mL; Cytochrome C Fold Change ([9]; vs untreated control cells): 13 fold; Caspase-3 Conc [12]: 537.50 ± 5.00 pg/mL; Caspase-3 Fold Change ([12]; vs control untreated cells): 8.20 fold
"Cc1c(C(=O)NCCc2ccc(N3CCOCC3)cc2)[nH]c2c(Cl)cc(Cl)cc12 [Compound 5i, 5,7-Dichloro-3-methyl-N-(4-morpholinophenethyl)-1H-indole-2-carboxamide]",90,1550 ± 200,1300 ± 100,1600 ± 200,1650 ± 200,1500,185 to 187,27 ± 3,IC50 (EGFR): 137 ± 12 nM
"Cc1c(C(=O)NCCc2ccccc2)[nH]c2c(F)cc(F)cc12 [Compound 5j, 5,7-Difluoro-3-methyl-N-phenethyl-1H-indole-2-carboxamide]",83,1200 ± 100,1000 ± 100,1300 ± 100,1300 ± 100,1200,198 to 200,34 ± 3,IC50 (EGFR): 98 ± 8 nM
"Cc1c(C(=O)NCCc2ccc(N3CCCCC3)cc2)[nH]c2c(F)cc(F)cc12 [Compound 5k, 5,7-Difluoro-3-methyl-N-(4-(piperidin-1-yl)phenethyl)-1H-indole-2-carboxamide]",87,1400 ± 200,1200 ± 100,1500 ± 200,1500 ± 200,1400,192 to 194,19,IC50 (EGFR): 129 ± 11 nM
"Cc1c(C(=O)N2CCN(c3ccccc3)CC2)[nH]c2ccc(Cl)cc12 [Compound 6a, (5-Chloro-3-methyl-1H-indol-2-yl)(4-phenylpiperazin-1-yl)methanone]",90,2900 ± 300,2600 ± 200,2800 ± 200,2900 ± 200,2800,165 to 167,–,–
"Cc1c(C(=O)N2CCN(c3ccccc3)CC2)[nH]c2cc(Cl)ccc12 [Compound 6b, (6-Chloro-3-methyl-1H-indol-2-yl)(4-phenylpiperazin-1-yl)methanone]",91,2500 ± 200,2300 ± 200,2650 ± 200,2800 ± 200,2600,180 to 182,–,–
"Cc1c(C(=O)N2CCN(c3ccccc3)CC2)[nH]c2c(F)cc(F)cc12 [Compound 6c, (5,7-Difluoro-3-methyl-1H-indol-2-yl)(4-phenylpiperazin-1-yl)methanone]",89,2200 ± 200,2100 ± 200,2400 ± 200,2500 ± 200,2300,171 to 173,–,–
"Cc1c(C(=O)NCc2ccccc2)[nH]c2ccc(Cl)cc12 [Compound 7, N-Benzyl-5-chloro-3-methyl-1H-indole-2-carboxamide]",91,4100 ± 400,4000 ± 400,4400 ± 400,4600 ± 400,4300,203 to 205,–,–
